Consider 2 compounds from ChEMBL document CHEMBL1641538, “Synthesis of a novel human PPARδ selective agonist and its stimulatory effect on oligodendrocyte differentiation” (Bioorg Med Chem Lett, 2011).

In assay [1] the target is T1, Peroxisome proliferator-activated receptor alpha (Homo sapiens, UniProt Q07869).
T1 sequence (Q07869 whole entry): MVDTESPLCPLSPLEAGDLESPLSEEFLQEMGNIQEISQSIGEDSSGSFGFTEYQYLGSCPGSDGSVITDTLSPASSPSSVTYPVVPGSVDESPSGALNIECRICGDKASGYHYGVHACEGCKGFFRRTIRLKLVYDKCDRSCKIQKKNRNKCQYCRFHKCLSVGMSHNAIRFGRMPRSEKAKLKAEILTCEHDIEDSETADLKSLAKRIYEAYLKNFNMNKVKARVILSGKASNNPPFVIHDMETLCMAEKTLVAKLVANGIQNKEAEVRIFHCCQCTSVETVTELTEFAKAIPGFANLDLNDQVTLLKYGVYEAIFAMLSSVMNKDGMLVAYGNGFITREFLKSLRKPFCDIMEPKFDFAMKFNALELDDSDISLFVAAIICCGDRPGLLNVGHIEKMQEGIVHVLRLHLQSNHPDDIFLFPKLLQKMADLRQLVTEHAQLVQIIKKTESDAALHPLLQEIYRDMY
Description: Transactivation of Gal4-fused human PPARalpha DNA binding domain expressed in african green monkey CV1 cells by luciferase reporter gene assay. Format: cell-based, CV-1. Background: Reporter assays use an easily measured gene product as a stand-in for the process of interest.

The target of assay [2] is T2, Peroxisome proliferator-activated receptor gamma (Homo sapiens, UniProt P37231).
T2 sequence (P37231 whole entry): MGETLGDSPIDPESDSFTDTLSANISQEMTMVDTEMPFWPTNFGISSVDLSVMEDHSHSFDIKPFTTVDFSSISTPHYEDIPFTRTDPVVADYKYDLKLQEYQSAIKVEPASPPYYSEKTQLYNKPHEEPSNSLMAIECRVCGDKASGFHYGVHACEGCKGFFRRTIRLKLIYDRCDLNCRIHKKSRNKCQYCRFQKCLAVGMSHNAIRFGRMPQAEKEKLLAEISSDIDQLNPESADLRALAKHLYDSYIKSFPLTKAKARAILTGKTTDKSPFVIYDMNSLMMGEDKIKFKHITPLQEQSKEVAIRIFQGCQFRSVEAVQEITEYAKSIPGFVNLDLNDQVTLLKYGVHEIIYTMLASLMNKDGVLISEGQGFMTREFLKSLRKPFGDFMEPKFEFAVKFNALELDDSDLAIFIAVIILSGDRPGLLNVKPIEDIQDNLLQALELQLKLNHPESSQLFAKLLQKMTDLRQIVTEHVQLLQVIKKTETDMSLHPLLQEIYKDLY
Description: Transactivation of full length human PPARgamma expressed in african green monkey CV1 cells by luciferase reporter gene assay. Format: cell-based, CV-1.

The species named for a further assay is Homo sapiens. Description: Selectivity ratio of EC50 for full length human PPARalpha to EC50 for full length human PPARdelta.
The species entered for a further assay is Rattus norvegicus. Description: Induction of Wistar rat oligodendrocyte differentiation at 0.1 uM after 3 days by O1 antibody staining. It is filed as functional.
The target in assay [3] is T3, Peroxisome proliferator-activated receptor delta (Homo sapiens, UniProt Q03181).
T3 sequence (Q03181 whole entry): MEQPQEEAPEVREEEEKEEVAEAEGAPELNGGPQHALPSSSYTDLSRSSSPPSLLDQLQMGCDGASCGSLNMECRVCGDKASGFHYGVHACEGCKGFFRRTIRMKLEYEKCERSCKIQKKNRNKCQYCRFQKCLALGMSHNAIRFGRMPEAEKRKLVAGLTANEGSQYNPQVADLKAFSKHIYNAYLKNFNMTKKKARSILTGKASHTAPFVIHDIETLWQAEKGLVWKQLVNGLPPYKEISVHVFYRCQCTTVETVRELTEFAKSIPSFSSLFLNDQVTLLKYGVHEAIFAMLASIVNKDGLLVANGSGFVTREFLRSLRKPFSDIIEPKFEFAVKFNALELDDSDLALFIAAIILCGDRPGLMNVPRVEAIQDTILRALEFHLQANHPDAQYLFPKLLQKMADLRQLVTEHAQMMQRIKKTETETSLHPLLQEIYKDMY
Description: Transactivation of full length human PPARdelta expressed in african green monkey CV1 cells by luciferase reporter gene assay. Format: cell-based, CV-1.

The target in assay [4] is T2, Peroxisome proliferator-activated receptor gamma. It is filed as cell-based, CV-1.
Assay [5] addresses PPAR delta/gamma (Homo sapiens) (UniProt P37231+Q03181). Description: Selectivity ratio of EC50 for full length human PPARgamma to EC50 for full length human PPARdelta.
The target in assay [6] is T1, Peroxisome proliferator-activated receptor alpha. Description: Transactivation of full length human PPARalpha expressed in african green monkey CV1 cells by luciferase reporter gene assay. Format: cell-based, CV-1.
Assay [7] addresses T3, Peroxisome proliferator-activated receptor delta. Description: Transactivation of Gal4-fused human PPARdelta DNA binding domain expressed in african green monkey CV1 cells by luciferase reporter gene assay. Format: cell-based, CV-1.

SMILES strings stand for the structures. Active and inactive are the calls of the source. No cut-off for these calls is given here.

For the compound `Cc1cc2c(CCc3nc(-c4ccc(Cl)cc4Cl)oc3C(C)C)noc2cc1OCC(=O)O`, the EC50 was more than 10 µM in assay [1]; more than 10 µM in assay [2]; 0.0045 µM in assay [3]; more than 10 µM in assay [4]; more than 10 µM in [6]. The Ratio EC50 (in the assay filed under Homo sapiens; in [5]) was 2000 each time. Also, the outcome in the assay filed under Rattus norvegicus was Active.

On to `Cc1nc(-c2ccc(C(F)(F)F)cc2)sc1C(=O)NCc1ccc(OC(C)(C)C(=O)O)cc1` [GW590735], for which the EC50 in assay [7] was 2.6 µM; in [4], more than 10 µM.

Broadly, the EC50 is the concentration giving half of the maximal effect.
